Data as given in ChEMBL document CHEMBL1154287, “Phenylaminopyrimidines as inhibitors of Janus kinases (JAKs)” (Bioorg Med Chem Lett, 2009).

Legend:
[1] = molecular target: Tyrosine-protein kinase JAK2 (Homo sapiens, UniProt O60674)
Description: Inhibition of GST-tagged JAK2 kinase

[2] = molecular target: T1, Tyrosine-protein kinase JAK3 (Homo sapiens, UniProt P52333)
T1 sequence (P52333 whole entry): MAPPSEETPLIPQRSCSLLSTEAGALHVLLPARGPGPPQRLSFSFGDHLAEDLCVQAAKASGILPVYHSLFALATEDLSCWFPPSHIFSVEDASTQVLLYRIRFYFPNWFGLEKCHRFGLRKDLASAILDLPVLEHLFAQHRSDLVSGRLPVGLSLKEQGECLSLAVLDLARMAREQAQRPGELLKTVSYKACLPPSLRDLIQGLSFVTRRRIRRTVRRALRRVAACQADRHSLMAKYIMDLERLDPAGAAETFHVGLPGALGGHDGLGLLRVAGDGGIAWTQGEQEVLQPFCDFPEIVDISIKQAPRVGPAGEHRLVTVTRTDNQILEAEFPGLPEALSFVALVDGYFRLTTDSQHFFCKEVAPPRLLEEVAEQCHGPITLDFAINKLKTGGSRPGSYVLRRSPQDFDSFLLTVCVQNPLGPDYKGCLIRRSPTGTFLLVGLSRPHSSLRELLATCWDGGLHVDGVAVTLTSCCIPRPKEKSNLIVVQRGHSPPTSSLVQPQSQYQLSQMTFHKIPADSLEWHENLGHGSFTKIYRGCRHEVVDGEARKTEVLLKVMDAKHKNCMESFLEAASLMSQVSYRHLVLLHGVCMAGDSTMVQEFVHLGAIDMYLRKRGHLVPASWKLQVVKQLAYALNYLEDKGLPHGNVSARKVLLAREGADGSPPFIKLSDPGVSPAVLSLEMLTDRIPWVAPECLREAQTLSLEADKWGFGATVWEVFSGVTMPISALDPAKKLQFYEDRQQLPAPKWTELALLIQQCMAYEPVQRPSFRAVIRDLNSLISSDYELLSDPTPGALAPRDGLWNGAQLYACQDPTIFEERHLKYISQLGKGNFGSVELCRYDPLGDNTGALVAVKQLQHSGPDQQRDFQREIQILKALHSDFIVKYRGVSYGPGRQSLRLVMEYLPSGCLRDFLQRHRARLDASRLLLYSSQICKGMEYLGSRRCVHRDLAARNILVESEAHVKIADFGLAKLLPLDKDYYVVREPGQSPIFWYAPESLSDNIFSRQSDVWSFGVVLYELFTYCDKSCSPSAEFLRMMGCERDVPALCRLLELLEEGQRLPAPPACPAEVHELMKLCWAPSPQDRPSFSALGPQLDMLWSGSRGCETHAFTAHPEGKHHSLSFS
Description: Inhibition of GST-tagged JAK3 kinase

BaF3 [3] = assay: cells; details: Mus musculus, BaF3, 72 h
Description: Antiproliferative activity against mouse BAF3 cells expressing TEL-JAK2 kinase after 72 hrs by alamar blue assay

BaF3 [4] = assay: cells; details: Mus musculus, BaF3, 72 h; remark: listed apart in the source
Description: Antiproliferative activity against mouse BAF3 cells expressing TEL-JAK3 kinase after 72 hrs by alamar blue assay

cells = details: Mus musculus, CTLL-2, 72 h
Description: Antiproliferative activity against IL-2-stimulated mouse CTLL-2 cells expressing JAK1/JAK3 after 72 hrs by alamar blue assay

[5] = Apparent permeability from basolateral to apical side in human Caco-2 cells; type: ADME, cell-based
in vitro [6] = details: human, Caco-2
Description: Apparent permeability from apical to basolateral side in human Caco-2 cells

in vitro [7] = details: human, Caco-2; remark: listed apart in the source
Description: Ratio of permeability from apical to basolateral side over basolateral to apical side in human Caco-2 cells

[8] = Cmax in Sprague-Dawley rat at 18 mg/kg, po; type: ADME, organism-based; design: dose 18 mg/kg, route oral; details: in vivo
[9] = Tmax in Sprague-Dawley rat at 18 mg/kg, po; type: ADME, organism-based; design: dose 18 mg/kg, route oral; details: in vivo
[10] = Apparent half life in Sprague-Dawley rat at 18 mg/kg, po; type: ADME, organism-based; design: dose 18 mg/kg, route oral; details: in vivo
[11] = Blood clearance in Sprague-Dawley rat at 18 mg/kg, po; type: ADME, organism-based; design: dose 18 mg/kg, route oral
BaF3 [12] = assay: Antiproliferative activity against mouse BAF3 cells expressing wild type JAK2 kinase after 72 hrs by alamar blue assay in presence of IL-3; type: functional, cell-based; details: BaF3, 72 h
[13] = Antiproliferative activity against human SET2 cells expressing JAK2 V617F mutant kinase after 72 hrs by alamar blue assay; type: functional, cell-based; details: SET-2, 72 h
K562 = assay: cells; details: Homo sapiens, K562, 72 h
Description: Antiproliferative activity against human K562 cells after 72 hrs by alamar blue assay

Chain of Tyrosine-protein kinase JAK2 (O60674 whole entry): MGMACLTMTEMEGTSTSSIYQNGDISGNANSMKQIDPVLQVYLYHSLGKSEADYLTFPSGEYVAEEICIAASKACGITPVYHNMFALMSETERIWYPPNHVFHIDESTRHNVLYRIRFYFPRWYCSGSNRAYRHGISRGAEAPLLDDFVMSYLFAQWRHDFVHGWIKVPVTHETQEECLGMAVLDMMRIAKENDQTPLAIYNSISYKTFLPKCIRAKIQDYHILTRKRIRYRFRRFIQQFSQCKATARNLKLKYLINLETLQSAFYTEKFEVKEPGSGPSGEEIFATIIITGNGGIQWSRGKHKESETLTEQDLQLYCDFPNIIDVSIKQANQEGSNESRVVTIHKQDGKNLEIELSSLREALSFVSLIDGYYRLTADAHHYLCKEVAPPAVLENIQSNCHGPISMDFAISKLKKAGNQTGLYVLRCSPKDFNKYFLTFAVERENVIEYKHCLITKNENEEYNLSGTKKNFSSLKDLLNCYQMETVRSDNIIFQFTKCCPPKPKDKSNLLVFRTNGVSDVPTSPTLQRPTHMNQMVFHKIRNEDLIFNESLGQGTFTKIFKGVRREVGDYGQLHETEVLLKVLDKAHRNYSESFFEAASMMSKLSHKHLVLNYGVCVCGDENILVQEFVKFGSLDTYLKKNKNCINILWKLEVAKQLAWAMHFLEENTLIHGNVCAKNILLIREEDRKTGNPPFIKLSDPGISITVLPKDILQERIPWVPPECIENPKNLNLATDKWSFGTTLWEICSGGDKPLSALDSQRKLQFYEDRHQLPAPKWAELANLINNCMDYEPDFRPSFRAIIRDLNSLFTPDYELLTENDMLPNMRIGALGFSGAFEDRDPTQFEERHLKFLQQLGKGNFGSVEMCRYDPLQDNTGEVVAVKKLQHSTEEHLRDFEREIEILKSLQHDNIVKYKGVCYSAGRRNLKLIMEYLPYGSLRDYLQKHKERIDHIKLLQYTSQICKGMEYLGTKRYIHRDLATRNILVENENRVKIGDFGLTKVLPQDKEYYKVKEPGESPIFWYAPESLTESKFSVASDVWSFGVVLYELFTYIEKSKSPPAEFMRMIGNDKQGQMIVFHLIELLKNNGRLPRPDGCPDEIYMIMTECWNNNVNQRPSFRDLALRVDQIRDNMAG

Structure (SMILES)	IC50 [1] [nM]	IC50 [2] [nM]	IC50 (BaF3 [3]) [nM]	IC50 (BaF3 [4]) [µM]	IC50 (cells) [nM]	also measured
CC(C)(C#N)NC(=O)c1ccc(-c2ccnc(Nc3ccc(N4CCOCC4)cc3)n2)cc1	549	3910	3720	4.25	–	–
N#Cc1ccc(-c2ccnc(Nc3ccc(N4CCOCC4)cc3)n2)cc1	–	–	> 20000	–	–	–
Nc1cccc(-c2ccnc(Nc3ccc(N4CCOCC4)cc3)n2)c1	322	–	8520	–	–	–
O=C(NCc1ccco1)c1ccc(-c2ccnc(Nc3ccc(N4CCOCC4)cc3)n2)cc1	202	–	5220	–	–	–
N#CCNC(=O)c1cccc(-c2ccnc(Nc3ccc(N4CCOCC4)cc3)n2)c1	545	> 5000	> 20000	> 20	> 20000	–
Cc1nccn1Cc1ccc(-c2ccnc(Nc3ccc(N4CCOCC4)cc3)n2)cc1	81	–	3730	–	–	–
OC[C@@H](O)[C@@H](O)[C@H](O)[C@H](O)CO [MANNITOL]	–	–	–	–	–	Papp B→A [5]: 1.1 ×10⁻⁶ cm/s; Papp A→B (in vitro [6]): 0.7 ×10⁻⁶ cm/s; efflux ratio (in vitro [7]): 1.5
N#CCC(=O)Nc1cccc(-c2ccnc(Nc3ccc(N4CCOCC4)cc3)n2)c1	303	1760	10300	> 20	18900	–
N#CCNCc1cccc(-c2ccnc(Nc3ccc(N4CCOCC4)cc3)n2)c1	132	> 1000	9820	> 20	8030	–
CN(CC#N)C(=O)c1ccc(-c2ccnc(Nc3ccc(N4CCOCC4)cc3)n2)cc1	298	1420	6340	16.9	4170	–
CC(C)NCC(O)COc1cccc2ccccc12 (configuration not stated) [PROPRANOLOL]	–	–	–	–	–	Papp B→A [5]: 48.8 ×10⁻⁶ cm/s; Papp A→B (in vitro [6]): 38.7 ×10⁻⁶ cm/s; efflux ratio (in vitro [7]): 1.3
NC(=O)c1ccc(-c2ccnc(Nc3ccc(N4CCOCC4)cc3)n2)cc1	326	–	5560	–	–	–
NS(=O)(=O)c1ccc(-c2ccnc(Nc3ccc(N4CCOCC4)cc3)n2)cc1	83	–	–	–	–	–
Cc1cc(-c2ccnc(Nc3ccc(N4CCOCC4)cc3)n2)cc(C)c1O	88	–	3520	–	–	–
c1cc(-c2ccc3[nH]ccc3c2)nc(Nc2ccc(N3CCOCC3)cc2)n1	33	–	7130	–	–	–
c1ccc(-c2ccnc(Nc3ccc(N4CCOCC4)cc3)n2)cc1	467	–	–	–	–	–
CC(=O)Nc1ccc(-c2ccnc(Nc3ccc(N4CCOCC4)cc3)n2)cc1	67	–	3110	–	–	–
COc1cnc(Nc2ccc(N3CCOCC3)cc2)nc1-c1ccc(C(=O)NCC#N)cc1	–	–	8500	> 20	6160	–
COc1cc(-c2ccnc(Nc3ccc(N4CCOCC4)cc3)n2)ccc1N	16	–	5620	–	–	–

Continued by falling IC50 (BaF3 [3]), values first:

IC50 [1] [nM]	IC50 [2] [nM]	IC50 (BaF3 [3]) [nM]	IC50 (BaF3 [4]) [µM]	IC50 (cells) [nM]	Structure (SMILES)	also measured
163	1450	2800	9.51	5070	N#CCNC(=O)c1ccc(-c2ccnc(Nc3ccc(CN4CCOCC4)cc3)n2)cc1	–
65	> 1000	2630	7.57	2040	Cc1cc(-c2ccnc(Nc3ccc(N4CCOCC4)cc3)n2)ccc1C(=O)NCC#N	–
–	1880	2560	7.45	3770	N#CCNC(=O)c1ccc(-c2ccnc(Nc3cccc(N4CCOCC4)c3)n2)cc1	–
69	–	2200	6.25	1510	N#CCNC(=O)c1ccc(-c2ccnc(Nc3ccc(N4CCSCC4)cc3)n2)cc1	–
52	–	2040	9.97	7900	N#CCNC(=O)c1ccc(-c2ccnc(Nc3ccc(CN4CCS(=O)(=O)CC4)cc3)n2)cc1	–
–	2020	1240	1.71	3990	N#CCNC(=O)c1ccc(-c2ccnc(Nc3ccc(N4CCOCC4)c(C(F)(F)F)c3)n2)cc1	–
116	274	1140	3.28	1260	N#CCNC(=O)c1ccc(-c2ccnc(Nc3ccc(N4CCOCC4)c(F)c3)n2)cc1	–
18	> 1000	1000	3.43	1550	CN1CCN(Cc2ccc(Nc3nccc(-c4ccc(NS(C)(=O)=O)cc4)n3)cc2)CC1	–
14	960	941	3.14	5180	CN1CCN(Cc2cccc(Nc3nccc(-c4ccc(NS(C)(=O)=O)cc4)n3)c2)CC1	–
6	149	933	6.55	1490	CS(=O)(=O)Nc1ccc(-c2ccnc(Nc3ccc(N4CCC(O)CC4)cc3)n2)cc1	–
9	> 1000	896	1.94	1670	CS(=O)(=O)Nc1ccc(-c2ccnc(Nc3ccc(CN4CCOCC4)cc3)n2)cc1	–
16	1620	892	2.2	5610	CS(=O)(=O)Nc1ccc(-c2ccnc(Nc3ccc(CN4CCC(O)CC4)cc3)n2)cc1	–
166	362	840	1.1	3680	CCN(CC)CCCOc1ccc(Nc2nccc(-c3ccc(C(=O)NCC#N)cc3)n2)cc1	–
8	930	812	1.73	2660	CS(=O)(=O)Nc1ccc(-c2ccnc(Nc3cccc(CN4CCOCC4)c3)n2)cc1	–
–	–	798	2.43	1250	N#CCNC(=O)c1ccc(-c2ccnc(Nc3ccc(N4CCOCC4)cc3)n2)cc1 [MOMELOTINIB]	Cmax [8]: 40.4 µM; Tmax [9]: 4 h; half-life [10]: 144 min; CL/F [11]: 6.3 mL/min/kg; Papp B→A [5]: 27.3 ×10⁻⁶ cm/s; IC50 (BaF3 [12]): 1430 nM; IC50 [13]: 232 nM; IC50 (K562): > 20 µM; Papp A→B (in vitro [6]): 30.4 ×10⁻⁶ cm/s
12	636	771	1.94	6760	CS(=O)(=O)Nc1ccc(-c2ccnc(Nc3cccc(CN4CCC(O)CC4)c3)n2)cc1	–
–	–	720	4.21	915	N#CCC(=O)Nc1ccc(-c2ccnc(Nc3ccc(N4CCOCC4)cc3)n2)cc1	–
11	538	580	0.73	735	CS(=O)(=O)Nc1ccc(-c2ccnc(Nc3ccc(CN4CCCCC4)cc3)n2)cc1	–
–	192	525	2.05	1830	CN1CCN(c2ccc(Nc3nccc(-c4ccc(C(=O)NCC#N)cc4)n3)cc2)CC1	–
8	85	433	5.96	240	Cc1cnc(Nc2ccc(N3CCOCC3)cc2)nc1-c1ccc(C(=O)NCC#N)cc1	–
47	152	423	1.23	1850	CCN1CCN(Cc2ccc(Nc3nccc(-c4ccc(C(=O)NCC#N)cc4)n3)cc2)CC1	–
4	351	396	3.95	489	CS(=O)(=O)Nc1ccc(-c2ccnc(Nc3ccc(N4CCOCC4)cc3)n2)cc1	–
3	62	380	2.55	< 160	COc1cc(-c2ccnc(Nc3ccc(N4CCOCC4)cc3)n2)ccc1O	–
6	110	234	0.24	569	CS(=O)(=O)Nc1ccc(-c2ccnc(Nc3cccc(CN4CCCC4)c3)n2)cc1	–
30	9	205	0.275	245	COc1cc(-c2ccnc(Nc3ccc(N4CCOCC4)cc3)n2)ccc1C(=O)NCC#N	–
